Experimental data from PMC8116058, “De novo macrocyclic peptides dissect energy coupling of a heterodimeric ABC transporter by multimode allosteric inhibition” (eLife, 2021).
Positions of bridges follow the written chain, without caps; N, C: chain ends. Non-standard residues stand in square brackets, D forms with d. Residues, ends and D or L forms follow the SMILES beside them. *: point of attachment. 5FAM = O=C1OC2(c3ccc(O)cc3Oc3cc(O)ccc32)c2ccc(C(=O)*)cc21; βAla = NCCC(=O)O

Tested on: TmrAB
Method: In order to analyze the binding affinity and specificity of CPs to TmrAB, we established a fluorescence polarization assay. Fluorescein-labeled CP^Fs were incubated with increasing concentrations of TmrAB reconstituted in liposomes at a protein-to-lipid ratio of 1:20 (w/w). […] To address whether the CPs recognize a linear or non-linear epitope, we examined the binding of CP^Fs after disrupting the quaternary and tertiary structure of TmrAB complexes by adding anionic detergent SDS.
Figure 2. […] (A, B) Equilibrium binding analysis. Fluorescence anisotropy of CP^Fs (50 nM) was determined at λex/em = 485/520 nm with increasing concentrations of TmrAB which was reconstituted in liposomes. TmrAB concentrations were calculated based on the random (50/50%) orientation in proteoliposomes ([Stefan et al., 2020]). […] The difference in fluorescence polarization was normalized to free (0%) and 100% bound CP^F. Mean values ± SD (n = 3) are shown, and data were analyzed by a one-site binding model. […] Amounts of TmrA in input (I), flow-through (FT), wash fraction (W), and eluate (E) were analyzed by SDS-PAGE and immunoblotting (α-His). […] Bound TmrAB was eluted in SDS loading buffer and analyzed by SDS-PAGE (silver stain). […] TmrAB in input (I), flow-through (FT), washing fraction (W), and eluate (E) was analyzed by SDS-PAGE and immunoblotting (α-His). […] CP^F-TmrAB complexes were analyzed by gel filtration. […]

Row | SMILES | Isolation of TmrAB from solubilized E. coli membranes
1 | CC[C@H](C)[C@@H]1NC(=O)[C@H](Cc2c[nH]c3ccccc23)NC(=O)[C@H](CC(N)=O)NC(=O)[C@H](C)NC(=O)[C@H](CO)NC(=O)[C@@H]2CCCN2C(=O)[C@H](CC(=O)O)NC(=O)[C@@H](Cc2ccc(O)cc2)NC(=O)CSC[C@@H](C(=O)NCC(=O)N[C@@H](CO)C(=O)NCCC(=O)NCCC(=O)N[C@@H](CCCNC(=N)N)C(=O)N[C@@H](CCCCNC(=O)c2ccc3c(c2)C(=O)OC32c3ccc(O)cc3Oc3cc(O)ccc32)C(N)=O)NC(=O)[C@H]([C@@H](C)O)NC(=O)[C@H](CC(C)C)NC(=O)[C@H](CC(C)C)NC(=O)[C@H](C(C)C)NC(=O)[C@H](CC(C)C)NC1=O [CP13] ({CH2CO}-[dY]DPSANWILVLLTCGS[βAla][βAla]RK(5FAM)-NH2; thioether N-14; C-terminus assumed) | isolate intact TmrAB complexes
2 | CC(C)[C@@H]1NC(=O)[C@H](Cc2ccccc2)NC(=O)[C@@H]2CCCN2C(=O)[C@H](CC(N)=O)NC(=O)[C@H](Cc2c[nH]c3ccccc23)NC(=O)[C@H](C(C)C)NC(=O)[C@H](Cc2ccc(O)cc2)NC(=O)[C@H](Cc2ccccc2)NC(=O)[C@@H](Cc2ccc(O)cc2)NC(=O)CSC[C@@H](C(=O)NCC(=O)N[C@@H](CO)C(=O)NCCC(=O)NCCC(=O)N[C@@H](CCCNC(=N)N)C(=O)N[C@@H](CCCCNC(=O)c2ccc3c(c2)C(=O)OC32c3ccc(O)cc3Oc3cc(O)ccc32)C(N)=O)NC(=O)[C@H](CCCCN)NC(=O)[C@H](Cc2ccccc2)NC1=O [CP14] ({CH2CO}-[dY]FYVWNPFVFKCGS[βAla][βAla]RK(5FAM)-NH2; thioether N-12; C-terminus assumed) | isolate intact TmrAB complexes
